From US7959907B2, “Method of treating cancer by combination therapy using TNF and alpha-galactosylceramide” (VIB VZW, priority 2007, dated 2011)

Key:
B16B16 melanoma = assay: Tumour experiment: subcutaneously growing B16B16 melanoma in C57BL/6 mice, tumor size index; format: in vivo
Protocol: Female C57BL/6J@RJ mice were purchased from Janvier (Le Genest-Saint-Isle, France). The animals were housed in 14-10 hours light/dark cycles in a temperature-controlled, air-conditioned room, and received food and water ad libitum. The mice were used for the tumour experiment at the age of 8-12 weeks.
The melanin-positive melanoma B16B16 cells (Hart et al., 1979) were cultured in RPMI 1640 (Invitrogen) supplemented with 10% FCS, 50 IU/ml penicillin G, 50 μg/ml streptomycin sulphate, 2 mM L-glutamine and 0.4 mM Na-pyruvate. For tumor inoculation cells were detached from the culture flask by a short EDTA treatment, washed three times in endotoxin-free sterile PBS (Sigma), and resuspended in PBS at 6×10^6 cells/ml.
On day 0, the mice were inoculated with 6×10^5 cells subcutaneously in the back just in front of the hind limb. Treatment was started when the tumor size index (TSI), i.e., the product of the largest perpendicular diameters in cm, reached 0.5 (day 13). Treatment with hTNF (30 μg/injection) or low dose mTNF (0.7 μg/injection) was given daily for 9 or 10 consecutive days via paralesional injection (subcutaneous injection near the site of the tumor, but outside the nodule). Alpha-GalCer (1-2 μg/injection) was injected intraperitoneally. […] TSI and body weight were measured every day prior to injection and every two or three days when treatment was finished.

cancer = conditions: clinical studies; cited from earlier work

## CCCCCCCCCCCCCCCCCCCCCCCCCC(=O)N[C@@H](CO[C@H]1O[C@H](CO)[C@H](O)[C@H](O)[C@H]1O)[C@H](O)[C@H](O)CCCCCCCCCCCCCC [alpha-GalCer, (2S 3S, 4R)-1-O-(alfa-D-galactopyranosyl)-N-hexacosanoyl-2-amino-1,3,4-octadecanetriol]
B16B16 melanoma; larger scale experiment, n=7, alpha-GalCer 1 μg/mouse pre-treatment, hTNF 30 μg/injection, low dose mTNF 0.7 μg/injection
  effect on tumour growth: small inhibiting effect
B16B16 melanoma; pilot experiment, alpha-GalCer 2 μg/mouse i.p., hTNF 30 μg/injection paralesional daily, single agents alone
  effect on tumor growth: no effect on tumor growth
cancer
  clinical anti-tumour effects: no clinical anti-tumour effects were recorded
